{"source": "patent US11014884B2", "about": "(Global Blood Therapeutics, Inc., priority 2018, dated 2021)"}
{"target": "T1, hemoglobin (Homo sapiens, UniProt P69905)", "T1 construct": "from tissue; host or cells: whole blood (red blood cells)", "T1 sequence (P69905 2-142 limits assumed)": "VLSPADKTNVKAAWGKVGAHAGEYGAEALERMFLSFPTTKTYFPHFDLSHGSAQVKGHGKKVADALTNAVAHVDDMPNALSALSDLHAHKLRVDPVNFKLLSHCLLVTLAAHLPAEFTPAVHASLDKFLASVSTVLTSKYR", "T1 sequence (P68871 2-147 partner limits assumed)": "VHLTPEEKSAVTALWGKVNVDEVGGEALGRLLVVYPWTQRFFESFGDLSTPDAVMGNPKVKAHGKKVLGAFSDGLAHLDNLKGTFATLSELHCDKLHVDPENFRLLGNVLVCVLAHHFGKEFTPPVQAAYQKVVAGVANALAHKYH", "test": "Whole blood assay: oxygen equilibrium curves (Hemox Analyzer), change in p50", "type": "cell-based", "details": "whole blood 20% Hct (1 mM Hb), compound 1 mM, equimolar to hemoglobin, 1 h at 37° C.", "method": "Oxygen equilibrium curves (OECs) were collected using a TCS Hemox Analyzer (TCS Scientific Company, New Hope, Pa., USA) to measure changes in the binding affinity of 02 to Hb. Whole blood was incubated for 1 h at 37° C. with the indicated compounds in an equimolar ratio of hemoglobin to compound and diluted into TES (2-[[1,3-dihydroxy-2-(hydroxymethyl)propan-2-yl]amino]ethanesulfonic acid)/saline buffer prior to measurements. For example, for whole blood at 20% hematocrit [Hct], which corresponds to 1 mM Hb, a compound concentration of 1 mM was used (for example, for compounds 1-53), and the incubated sample diluted 50- to 100-fold. The concentration for compound 54 was 1.7 mM and in equimolar ratio to hemoglobin. The diluted samples were then oxygenated with compressed air within the Hemox Analyzer, and the OECs were collected during deoxygenation as previously described (Guarnone et al., Haematologica, 1995, 80, 426-430). p50 (partial pressure of 02 at which Hb is 50% saturated with 02) values were obtained using a non-linear regression analysis. Percentage change in p50 [Δp50(%)] was calculated as follows: Δp50(%)=[(p50 of control)−p50 with compound)/p50 control]×100.", "units": {"Delta-p50 (%)": "%"}}
{"smiles": "O=Cc1c(O)cccc1OC[C@@H]1CCCCCN1C(=O)c1cccc(O)c1C=O", "note": "(stereo in doubt) [Compound 38, 2-{2-[(2-formyl-3-hydroxyphenoxy)methyl]azepane-1-carbonyl}-6-hydroxybenzaldehyde]", "Delta-p50 (%)": 33.8}
{"smiles": "CCOc1cccc(C(=O)N2CCOC[C@H]2COc2cccc(O)c2C=O)c1C=O", "note": "[Compound 3, 2-ethoxy-6-[(3S)-3-[(2-formyl-3-hydroxyphenoxy)methyl]morpholine-4-carbonyl]benzaldehyde]", "Delta-p50 (%)": 73.6}
{"smiles": "O=Cc1c(O)cccc1OC[C@@H]1COCCN1C(=O)c1cccc(O)c1C=O", "note": "[Compound 4, (S)-2-((4-(2-formyl-3-hydroxybenzoyl)morpholin-3-yl)methoxy)-6-hydroxybenzaldehyde]", "Delta-p50 (%)": 30.9}
{"smiles": "O=Cc1cccc(N2C(=O)CC[C@H]2COc2cccc(O)c2C=O)c1", "note": "[Compound 5, 2-{[(2S)-1-(3-formylphenyl)-5-oxopyrrolidin-2-yl]methoxy}-6-hydroxybenzaldehyde]", "Delta-p50 (%)": 79}
{"smiles": "O=Cc1cc(-c2ncccc2COc2cccc(O)c2C=O)ccn1", "note": "[Compound 9, 3-[(2-formyl-3-hydroxyphenoxy)methyl]-[2,4′-bipyridine]-2′-carbaldehyde]", "Delta-p50 (%)": 36.1}
{"smiles": "O=Cc1cccc(-c2ncccc2COc2cccc(O)c2C=O)n1", "note": "[Compound 10, 3′-[(2-formyl-3-hydroxyphenoxy)methyl]-[2,2′-bipyridine]-6-carbaldehyde]", "Delta-p50 (%)": 0.2}
{"smiles": "O=Cc1nc(-c2ncccc2COc2cccc(O)c2C=O)cs1", "note": "[Compound 12, 4-{3-[(2-formyl-3-hydroxyphenoxy)methyl]pyridin-2-yl}-1,3-thiazole-2-carbaldehyde]", "Delta-p50 (%)": 2.9}
{"smiles": "O=Cc1ccc(C(=O)N2CCCC[C@H]2COc2cccc(O)c2C=O)cc1", "note": "[Compound 13, 2-{[(2S)-1-(4-formylbenzoyl)piperidin-2-yl]methoxy}-6-hydroxybenzaldehyde]", "Delta-p50 (%)": 45.4}
{"smiles": "O=Cc1ncc(-c2ncccc2COc2cccc(O)c2C=O)o1", "note": "[Compound 14, 5-(3-((2-formyl-3-hydroxyphenoxy)methyl)pyridin-2-yl)oxazole-2-carbaldehyde]", "Delta-p50 (%)": 17.8}
{"smiles": "COc1ccc(C=O)c(C(=O)N2CCCC[C@H]2COc2cccc(O)c2C=O)c1", "note": "[Compound 15, 2-[(2S)-2-[(2-formyl-3-hydroxyphenoxy)methyl]piperidine-1-carbonyl]-4-methoxybenzaldehyde]", "Delta-p50 (%)": 19}
{"smiles": "O=Cc1ccc(Cl)cc1C(=O)N1CCCC[C@H]1COc1cccc(O)c1C=O", "note": "[Compound 16, 4-chloro-2-[(2S)-2-[(2-formyl-3-hydroxyphenoxy)methyl]piperidine-1-carbonyl]benzaldehyde]", "Delta-p50 (%)": 39}
{"smiles": "O=Cc1ccccc1C(=O)N1CCCC[C@@H]1COc1cccc(O)c1C=O", "note": "[Compound 17, 2-{[(2R)-1-(2-formylbenzoyl)piperidin-2-yl]methoxy}-6-hydroxybenzaldehyde]", "Delta-p50 (%)": 67}
{"smiles": "O=Cc1cc(-c2ccccc2COc2cccc(O)c2C=O)co1", "note": "[Compound 18, 4-{2-[(2-formyl-3-hydroxyphenoxy)methyl]phenyl}furan-2-carbaldehyde]", "Delta-p50 (%)": 17}
{"smiles": "O=Cc1nc(-c2ncccc2COc2cccc(O)c2C=O)ccc1O", "note": "[Compound 19, 3′-[(2-formyl-3-hydroxyphenoxy)methyl]-5-hydroxy-[2,2′-bipyridine]-6-carbaldehyde]", "Delta-p50 (%)": 11}
{"smiles": "O=Cc1ccccc1C(=O)N1CCC[C@H]1COc1cccc(O)c1C=O", "note": "[Compound 20, 2-{[(2S)-1-(2-formylbenzoyl)pyrrolidin-2-yl]methoxy}-6-hydroxybenzaldehyde]", "Delta-p50 (%)": 32}
{"smiles": "O=Cc1ccccc1N1C(=O)CC[C@H]1COc1cccc(O)c1C=O", "note": "[Compound 21, 2-{[(2S)-1-(2-formylphenyl)-5-oxopyrrolidin-2-yl]methoxy}-6-hydroxybenzaldehyde]", "Delta-p50 (%)": 23}
{"smiles": "O=Cc1cccc(C(=O)N2CCC[C@H](COc3cccc(O)c3C=O)C2)c1", "note": "[Compound 22, 2-{[(3S)-1-(3-formylbenzoyl)piperidin-3-yl]methoxy}-6-hydroxybenzaldehyde]", "Delta-p50 (%)": 68.5}
{"smiles": "O=Cc1ccc(C(=O)N2CCC[C@H](COc3cccc(O)c3C=O)C2)cc1", "note": "[Compound 23, 2-{[(3S)-1-(4-formylbenzoyl)piperidin-3-yl]methoxy}-6-hydroxybenzaldehyde]", "Delta-p50 (%)": 20}
{"smiles": "O=Cc1cccc(-c2ccccc2COc2cccc(O)c2C=O)n1", "note": "[Compound 24, 6-{2-[(2-formyl-3-hydroxyphenoxy)methyl]phenyl}pyridine-2-carbaldehyde]", "Delta-p50 (%)": 11}
{"smiles": "O=Cc1ncccc1C(=O)N1CCCC[C@H]1COc1cccc(O)c1C=O", "note": "[Compound 25, 3-[(2S)-2-[(2-formyl-3-hydroxyphenoxy)methyl]piperidine-1-carbonyl]pyridine-2-carbaldehyde]", "Delta-p50 (%)": 4}
{"smiles": "O=Cc1ccccc1C(=O)N1CCC[C@@H](COc2cccc(O)c2C=O)C1", "note": "[Compound 26, 2-{[(3R)-1-(2-formylbenzoyl)piperidin-3-yl]methoxy}-6-hydroxybenzaldehyde]", "Delta-p50 (%)": 56}
{"smiles": "O=Cc1cccc(C(=O)N2CCC[C@@H](COc3cccc(O)c3C=O)C2)c1", "note": "[Compound 27, 2-{[(3R)-1-(3-formylbenzoyl)piperidin-3-yl]methoxy}-6-hydroxybenzaldehyde]", "Delta-p50 (%)": 74}
{"smiles": "O=Cc1ccc(C(=O)N2CCC[C@@H](COc3cccc(O)c3C=O)C2)cc1", "note": "[Compound 28, 2-{[(3R)-1-(4-formylbenzoyl)piperidin-3-yl]methoxy}-6-hydroxybenzaldehyde]", "Delta-p50 (%)": 45}
{"smiles": "O=Cc1ccccc1C(=O)N1CCC[C@H](COc2cccc(O)c2C=O)C1", "note": "[Compound 29, 2-{[(3S)-1-(2-formylbenzoyl)piperidin-3-yl]methoxy}-6-hydroxybenzaldehyde]", "Delta-p50 (%)": 82}
{"smiles": "O=Cc1c(O)cccc1OC[C@@H]1CCCN1C(=O)c1cccc(O)c1C=O", "note": "[Compound 30, 2-[(2S)-2-[(2-formyl-3-hydroxyphenoxy)methyl]pyrrolidine-1-carbonyl]-6-hydroxybenzaldehyde]", "Delta-p50 (%)": 45}
{"smiles": "O=Cc1cccc(-c2cnccc2COc2cccc(O)c2C=O)n1", "note": "[Compound 31, 4′-[(2-formyl-3-hydroxyphenoxy)methyl]-[2,3′-bipyridine]-6-carbaldehyde]", "Delta-p50 (%)": 3.5}
{"smiles": "O=Cc1cccc(-c2cccnc2COc2cccc(O)c2C=O)n1", "note": "[Compound 32, 2′-[(2-formyl-3-hydroxyphenoxy)methyl]-[2,3′-bipyridine]-6-carbaldehyde]", "Delta-p50 (%)": 50}
{"smiles": "COc1cccc(C(=O)N2CCCC[C@H]2COc2cccc(O)c2C=O)c1C=O", "note": "[Compound 33, 2-[(2S)-2-[(2-formyl-3-hydroxyphenoxy)methyl]piperidine-1-carbonyl]-6-methoxybenzaldehyde]", "Delta-p50 (%)": 84}
{"smiles": "Cc1cccc(C(=O)N2CCCC[C@H]2COc2cccc(O)c2C=O)c1C=O", "note": "[Compound 34, 2-[(2S)-2-[(2-formyl-3-hydroxyphenoxy)methyl]piperidine-1-carbonyl]-6-methylbenzaldehyde]", "Delta-p50 (%)": 78}
{"smiles": "O=Cc1ccc(F)cc1C(=O)N1CCCC[C@H]1COc1cccc(O)c1C=O", "note": "[Compound 35, 4-fluoro-2-[(2S)-2-[(2-formyl-3-hydroxyphenoxy)methyl]piperidine-1-carbonyl]benzaldehyde]", "Delta-p50 (%)": 70}
{"smiles": "O=Cc1ccccc1C(=O)N1CCOC[C@H]1COc1cccc(O)c1C=O", "note": "[Compound 36, 2-{[(3S)-4-(2-formylbenzoyl)morpholin-3-yl]methoxy}-6-hydroxybenzaldehyde]", "Delta-p50 (%)": 77}
{"smiles": "O=Cc1ccccc1C(=O)N1CCCCC[C@H]1COc1cccc(O)c1C=O", "note": "[Compound 37]", "Delta-p50 (%)": 31.5}
{"smiles": "CCOc1cccc(C(=O)N2CCCC[C@H]2COc2cccc(O)c2C=O)c1C=O", "note": "[Compound 39, 2-ethoxy-6-[(2S)-2-[(2-formyl-3-hydroxyphenoxy)methyl]piperidine-1-carbonyl]benzaldehyde]", "Delta-p50 (%)": 79.5}
{"smiles": "CC(C)Oc1cccc(C(=O)N2CCCC[C@H]2COc2cccc(O)c2C=O)c1C=O", "note": "[Compound 40, 2-[(2S)-2-[(2-formyl-3-hydroxyphenoxy)methyl]piperidine-1-carbonyl]-6-(propan-2-yloxy)benzaldehyde]", "Delta-p50 (%)": 72.5}
{"smiles": "Cc1ccc(-c2ncccc2COc2cccc(O)c2C=O)nc1C=O", "note": "[Compound 41, 3′-[(2-formyl-3-hydroxyphenoxy)methyl]-5-methyl-[2,2′-bipyridine]-6-carbaldehyde]", "Delta-p50 (%)": 29.1}
{"smiles": "O=Cc1cccc(-c2ccncc2COc2cccc(O)c2C=O)n1", "note": "[Compound 42, 3′-[(2-formyl-3-hydroxyphenoxy)methyl]-[2,4′-bipyridine]-6-carbaldehyde]", "Delta-p50 (%)": 17.4}
{"smiles": "CC1(C)C[C@@H](COc2cccc(O)c2C=O)N(C(=O)c2ccccc2C=O)C1", "note": "[Compound 43, 2-{[(2S)-1-(2-formylbenzoyl)-4,4-dimethylpyrrolidin-2-yl]methoxy}-6-hydroxybenzaldehyde]", "Delta-p50 (%)": 70}
{"smiles": "O=Cc1c(O)cccc1C(=O)N1CCCC[C@H]1COc1ccc2c(c1C=O)CCO2", "note": "[Compound 44, 5-{[(2S)-1-(2-formyl-3-hydroxybenzoyl)piperidin-2-yl]methoxy}-2,3-dihydro-1-benzofuran-4-carbaldehyde]", "Delta-p50 (%)": 34.2}
{"smiles": "CCOc1ccc(-c2ncccc2COc2cccc(O)c2C=O)nc1C=O", "note": "[Compound 45, 5-ethoxy-3′-[(2-formyl-3-hydroxyphenoxy)methyl]-[2,2′-bipyridine]-6-carbaldehyde]", "Delta-p50 (%)": 55.7}
